The record followed here is ChEMBL document CHEMBL1133119, “Synthesis of apicidin-derived quinolone derivatives: parasite-selective histone deacetylase inhibitors and antiproliferative agents” (J Med Chem, 2000).

Assay [1] is described as follows: Tested for parasite (malaria)-based antiproliferative assay. Format: functional.
For assay [2], the target named is Histone deacetylase (Eimeria tenella). As to the kind of experiment: Displacement of [3H]-Apicidin A from Histone deacetylase of Eimeria tenella extract. (In a radioligand displacement assay an active substance lowers the binding of a labelled ligand.)
Assay [3] concerns the target Histone deacetylase. Kind of assay: Inhibition of [3H]-Apicidin A binding to Histone deacetylase of chick liver extract. Also noted: species or system Gallus gallus.
The test system of another assay is HeLa. Kind of assay: Tested for mammalian cell (HeLa)-based antiproliferative assay. Format: functional, Homo sapiens.
In assay [4] the target is Histone deacetylase. Kind of assay: Tested for Histone deacetylase enzyme inhibition assay using mammalian cell nuclear extract (HeLa). The class given is protein assay, Homo sapiens.
Assay [5] is described as follows: Tested for parasite (malaria)-based antiproliferative assay; ND means no data. Format: functional.

≈ marks a conversion by molar mass, not a printed value.

As a reminder, the IC50 is the concentration that inhibits the measured activity by half. The low end stands for greater potency in that assay, the high end for weaker potency in that assay. Regarding `CCC(=O)CCCCC[C@@H]1NC(=O)[C@H]2CCCCN2C(=O)[C@H]([C@@H](C)CC)NC(=O)[C@H](Cc2cn(CC(=O)OC)c3ccccc23)NC1=O` [listing 1 of 2 here], the figures for the IC50 (in assay [1]; in assay [2]; at Histone deacetylase [3]) were 0.25 µg/mL (≈ 0.375 µM), 10.5 nM and 0.005 µg/mL (≈ 0.00751 µM), respectively.
Molecule `CCC(=O)CCCCC[C@@H]1NC(=O)[C@H]2CCCCN2C(=O)[C@H]([C@@H](C)CC)NC(=O)[C@H](c2cn(CC(=O)OC)c3ccccc3c2=O)NC1=O` [listing 1 of 2 here] returned an AP50 in the assay on HeLa above 10000 ng/mL.
Take `CCC(=O)CCCCC[C@@H]1NC(=O)[C@H]2CCCCN2C(=O)[C@H]([C@@H](C)CC)NC(=O)[C@H](c2cn(CC(=O)O)c3ccccc3c2=O)NC1=O` [listing 1 of 2 here]: the IC50 in assay [1] was 0.55 µg/mL (≈ 0.826 µM); in assay [2], 3000 nM; on Histone deacetylase [3], 5 µg/mL (≈ 7.51 µM).
Take `CCC(=O)CCCCC[C@@H]1NC(=O)[C@H]2CCCCN2C(=O)[C@H]([C@@H](C)CC)NC(=O)[C@H](c2cn(CC(=O)OC)c3ccccc3c2=O)NC1=O` [listing 2 of 2 here]: the IC50 in assay [1] is 0.79 µg/mL (≈ 1.16 µM); in assay [2], 441 nM; at Histone deacetylase [3], 2 µg/mL (≈ 2.94 µM).
In the assay with HeLa, `CCC(=O)CCCCC[C@@H]1NC(=O)[C@H]2CCCCN2C(=O)[C@H]([C@@H](C)CC)NC(=O)[C@H](Cc2cn(CC(=O)OC)c3ccccc23)NC1=O` [listing 2 of 2 here] yielded an AP50 of 150 ng/mL.
The molecule `CCC(=O)CCCCC[C@@H]1NC(=O)[C@H]2CCCCN2C(=O)[C@H]([C@@H](C)CC)NC(=O)[C@H](Cc2cn(OC)c3ccccc23)NC1=O` [APICIDIN] showed an IC50 in assay [1] of 0.057 µg/mL (≈ 0.0914 µM). This molecule also showed an AP50 with HeLa of 78 ng/mL.
`CCC(=O)CCCCC[C@@H]1NC(=O)[C@H]2CCCCN2C(=O)[C@H]([C@@H](C)CC)NC(=O)[C@H](c2cn(OC)c3ccccc3c2=O)NC1=O`: the IC50 was 0.04 µg/mL (≈ 0.0627 µM) in assay [1], 62.7 nM in assay [2], 1 µg/mL (≈ 1.57 µM) on Histone deacetylase [3] and 86 nM against Histone deacetylase [4]. This molecule also gave an AP50 in the assay with HeLa of 10000 ng/mL.
In the case of `CCC(=O)CCCCC[C@@H]1NC(=O)[C@H]2CCCCN2C(=O)[C@H]([C@@H](C)CC)NC(=O)[C@H](c2cn(C)c3ccccc3c2=O)NC1=O` [listing 1 of 2 here], the IC50 in assay [1] was 0.117 µg/mL (≈ 0.188 µM); in assay [2] it was 96.5 nM; on Histone deacetylase [3], 1 µg/mL (≈ 1.61 µM); on Histone deacetylase [4], 241 nM.
As for `CCC(=O)CCCCC[C@@H]1NC(=O)[C@H]2CCCCN2C(=O)[C@H]([C@@H](C)CC)NC(=O)[C@H](Cc2cn(CC(=O)O)c3ccccc23)NC1=O`, the figures for the IC50 (in assay [2]; on Histone deacetylase [3]; in assay [5]) were 99.7 nM, 0.065 µg/mL (≈ 0.0997 µM) and 1 µg/mL (≈ 1.53 µM), respectively.
`CCC(=O)CCCCC[C@@H]1NC(=O)[C@H]2CCCCN2C(=O)[C@H]([C@@H](C)CC)NC(=O)[C@H](Cc2cn(C)c3ccccc23)NC1=O`: the IC50 in assay [1] was 0.02 µg/mL (≈ 0.0329 µM); in assay [2], 19.7 nM; at Histone deacetylase [3], 0.005 µg/mL (≈ 0.00823 µM). The same molecule had an AP50 in the assay with HeLa of 225 ng/mL.
In the assay on HeLa, `CCC(=O)CCCCC[C@@H]1NC(=O)[C@H]2CCCCN2C(=O)[C@H]([C@@H](C)CC)NC(=O)[C@H](c2cn(C)c3ccccc3c2=O)NC1=O` [listing 2 of 2 here] came in with an AP50 above 10000 ng/mL.
As for `CCC(=O)CCCCC[C@@H]1NC(=O)[C@H]2CCCCN2C(=O)[C@H]([C@@H](C)CC)NC(=O)[C@H](Cc2cn(CC)c3ccccc23)NC1=O`, the IC50 was 0.18 µg/mL (≈ 0.289 µM) in assay [1], 161 nM in assay [2] and 0.01 µg/mL (≈ 0.0161 µM) at Histone deacetylase [3].
Take `CCCn1cc(C[C@@H]2NC(=O)[C@H](CCCCCC(=O)CC)NC(=O)[C@H]3CCCCN3C(=O)[C@H]([C@@H](C)CC)NC2=O)c2ccccc21` [listing 1 of 2 here]: the results for the IC50 (in assay [1]; in assay [2]; at Histone deacetylase [3]) were 0.25 µg/mL (≈ 0.393 µM), 47.2 nM and 0.01 µg/mL (≈ 0.0157 µM), respectively.
Turning to `CCC(=O)CCCCC[C@@H]1NC(=O)[C@H]2CCCCN2C(=O)[C@H]([C@@H](C)CC)NC(=O)[C@H](c2cn(CC)c3ccccc3c2=O)NC1=O`, the IC50 in assay [1] was 0.24 µg/mL (≈ 0.377 µM); in assay [2], 110 nM; at Histone deacetylase [3], 2 µg/mL (≈ 3.15 µM); against Histone deacetylase [4], 330 nM. The molecule further came in with an AP50 with HeLa above 10000 ng/mL.
The molecule `CCCn1cc(C[C@@H]2NC(=O)[C@H](CCCCCC(=O)CC)NC(=O)[C@H]3CCCCN3C(=O)[C@H]([C@@H](C)CC)NC2=O)c2ccccc21` [listing 2 of 2 here] yielded an AP50 with HeLa of 625 ng/mL.
In the assay on HeLa, `CCCn1cc([C@@H]2NC(=O)[C@H](CCCCCC(=O)CC)NC(=O)[C@H]3CCCCN3C(=O)[C@H]([C@@H](C)CC)NC2=O)c(=O)c2ccccc21` [listing 1 of 2 here] had an AP50 above 10000 ng/mL.
For `CCCn1cc([C@@H]2NC(=O)[C@H](CCCCCC(=O)CC)NC(=O)[C@H]3CCCCN3C(=O)[C@H]([C@@H](C)CC)NC2=O)c(=O)c2ccccc21` [listing 2 of 2 here], the IC50 in assay [1] is 0.44 µg/mL (≈ 0.677 µM); in assay [2], 192 nM; on Histone deacetylase [3], 0.7 µg/mL (≈ 1.08 µM); against Histone deacetylase [4], 230 nM.
For the molecule `CCC(=O)CCCCC[C@@H]1NC(=O)[C@H]2CCCCN2C(=O)[C@H]([C@@H](C)CC)NC(=O)[C@H](c2cn(CC(=O)O)c3ccccc3c2=O)NC1=O` [listing 2 of 2 here], the AP50 in the assay with HeLa was above 10000 ng/mL.
Regarding `CCC(=O)CCCCC[C@@H]1NC(=O)[C@H]2CCCCN2C(=O)[C@H]([C@@H](C)CC)NC(=O)[C@H](c2cnc3ccccc3c2O)NC1=O`, the IC50 in assay [1] was 0.04 µg/mL (≈ 0.0658 µM); in assay [2], 24.7 nM; on Histone deacetylase [3], 1 µg/mL (≈ 1.65 µM). In the assay on HeLa, this molecule returned an AP50 above 10000 ng/mL.
